Drawing on US10577349B2 (Sanford Burnham Prebys Medical Discovery Institute, priority 2015, dated 2020), this text covers IC50 for 21 compounds.

Assay [1] has as its target HCV cap-independent translation. Put plainly: In vitro translation assay, FF-HCV-Ren construct, cap-independent (Ren luciferase). In kind it is biochemical, rabbit reticulocyte lysates. The source says:
(§1) The bicistronic dual-reporter constructs that contain the firefly luciferase (FF) sequence, followed by the (encephalomyocarditis virus) EmCV and Hepatitis C virus (HCV) IRES, respectively, and the Renilla reniformis (Ren) luciferase sequence, has been previously described (Bordeleau Me., et al. Functional characterization of IRESes by an inhibitor of the RNA helicase eIF4A. Nature chemical biology. 2006; 2:213-20). For measurement of translation from the FF-EmCV-Ren and FF-HCV-Ren constructs, rabbit reticulocyte lysates (RRL) (Life Technologies, Carlsbad, Calif., USA) and the Dual-Glo (Promega, Madison, Wis., USA) read-outs were chosen. Two μl rabbit reticulocyte lysates mixed with Translation Mix 20× (-Met) and Translation Mix 20× (-Leu) in a ratio of 1:1 were pre-incubated with test compounds in 1536-well plates for 1 h at room temperature. Then, translation was started by adding 0.1 μg RNA per well and incubated for 2 h at 30° C. After a short chill phase, 2.5 μl Dual-Glo reagent 1 was added to each well and incubated for 10 min before reading the FF luciferase activity with the ViewLux uHTS Microplate Imager (Perkin Elmer, Waltham, Mass., USA). Directly after, 2.5 μl Dual-Glo reagent 2 was dispensed to each well and incubated at room temperature for 10 min before reading the Ren luciferase activity on the ViewLux. To exclude the possibility that test compounds interfere with any of the luciferase activities, a counter assay was performed in which the compounds were added after the completion of the in vitro translation.

The target in assay [2] is HCV cap-dependent translation. In words: In vitro translation assay, FF-HCV-Ren construct, cap-dependent (FF luciferase). Type of assay: biochemical, rabbit reticulocyte lysates.
Excerpt: as §1

Assay [3] concerns the target EmCV Cap-dependent translation. Put plainly: In vitro translation assay, FF-EmCV-Ren construct, cap-dependent (FF luciferase). In kind it is biochemical, rabbit reticulocyte lysates.
Excerpt: as §1

In assay [4] the target is EmCV Cap-independent translation. Put plainly: In vitro translation assay, FF-EmCV-Ren construct, cap-independent (Ren luciferase). Type of assay: biochemical, rabbit reticulocyte lysates.
Excerpt: as §1

The next assay has as its system A375. Put plainly: 48 h Cytotoxicity A375. In kind it is cell-based. The settings on record: Homo sapiens, A-375.

The IC50 is the midpoint of a concentration-inhibition curve. A higher IC50 goes with weaker potency in that assay. Take `O=C(/C=C/c1nc2ccccc2[nH]1)c1c(C2CCCCC2)c2cc(Cl)ccc2[nH]c1=O` [Compound 11, (E)-3-(3-(1H-benzo[d]imidazol-2-yl)acryloyl)-6-chloro-4-cyclohexylquinolin-2(1H)-one]: the IC50 in assay [1] is 2 to 10 µM; in assay [2], 2 to 10 µM; in assay [3], 2 to 10 µM; in assay [4] it was 2 to 10 µM; with A375 it was under 2 µM.

In the case of `O=C(/C=C/c1ccccn1)c1c(-c2ccc(Br)cc2)c2cc(Cl)ccc2[nH]c1=O` [Compound 92, 3-((2E)-3-(2-pyridyl)prop-2-enoyl)-4-(4-bromophenyl)-6-chlorohydroquinolin-2-one], the IC50 in assay [1] is 2 to 10 µM; in assay [2], 2 to 10 µM; in assay [3], 2 to 10 µM; in assay [4], 2 to 10 µM; in the assay on A375, under 2 µM.

In the case of `Cc1ccnc(-c2c(C(=O)/C=C/c3ccccn3)c(=O)[nH]c3ccc(Cl)cc23)c1` [Compound 94, 3-((2E)-3-(2-pyridyl)prop-2-enoyl)-6-chloro-4-(4-methyl(2-pyridyl))hydroquinolin-2-one], the IC50 in assay [1] is over 20 µM; in assay [2], over 20 µM; in assay [3], over 20 µM; in assay [4], over 20 µM; in the assay with A375, 2 to 10 µM.

For the compound `N#Cc1ccc(-c2c(C(=O)/C=C/c3cncc(F)c3)c(=O)[nH]c3ccc(Cl)cc23)cc1` [Compound 89], the IC50 (in assay [1]; in assay [2]; in assay [3]; in assay [4]; in the assay on A375) was 2 to 10 µM in each case.

`O=C(/C=C/c1cncc(C(F)(F)F)c1)c1c(-c2ccccc2)c2cc(Cl)ccc2[nH]c1=O` [Compound 76, 3-{(2E)-3-[5-(trifluoromethyl)(3-pyridyl)]prop-2-enoyl}-6-chloro-4-phenylhydroquinolin-2-one]: the IC50 is 2 to 10 µM in assay [1]; 2 to 10 µM in assay [2]; 2 to 10 µM in assay [3]; 2 to 10 µM in assay [4]; under 2 µM with A375.

For the compound `O=C(/C=C/c1nc2ccccc2[nH]1)c1c(-c2ccccc2)c2cc(C(F)(F)F)ccc2[nH]c1=O` [Compound 19, 3-(3-1H-Benzoimidazol-2-yl-acryloyl)-4-phenyl-6-trifluoromethyl-1H-quinolin-2-one], the IC50 in assay [1] was in the range of 10 to 20 µM; in assay [2], 10 to 20 µM; in assay [3], 2 to 10 µM; in assay [4] it was 2 to 10 µM; in the assay with A375, 2 to 10 µM.

Consider `O=C(/C=C/c1cncc(F)c1)c1c(-c2cncc(Br)c2)c2cc(Cl)ccc2[nH]c1=O` [Compound 103, (E)-4-(5-Bromo-pyridin-3-yl)-6-chloro-3-[3-(5-fluoro-pyridin-3-yl)-acryloyl]-1H-quinolin-2-one], for which the IC50 was 2 to 10 µM in assay [1]; 10 to 20 µM in assay [2]; 2 to 10 µM in assay [3]; 2 to 10 µM in assay [4]; 2 to 10 µM with A375.

For `O=C(/C=C/c1nc2ccccc2[nH]1)c1c(-c2ccccn2)c2cc(Cl)ccc2[nH]c1=O` [Compound 8, 3-(3-1H-Benzoimidazol-2-yl-acryloyl)-6-chloro-4-pyridin-2-yl-1H-quinolin-2-one], the IC50 is over 20 µM in assay [1]; over 20 µM in assay [2]; over 20 µM in assay [3]; over 20 µM in assay [4]; 10 to 20 µM with A375.

Regarding `O=C(/C=C/c1ccc(F)cc1C(F)(F)F)c1c(-c2ccccc2)c2cc(Cl)ccc2[nH]c1=O` [Compound 49, 6-Chloro-3-[3-(4-fluoro-2-trifluoromethyl-phenyl)-acryloyl]-4-phenyl-1H-quinolin-2-one], the half-inhibitory concentration (IC50) in assay [1] was 2 to 10 µM; in assay [2], 2 to 10 µM; in assay [3], 2 to 10 µM; in assay [4] it was 2 to 10 µM; with A375, under 2 µM.

In the case of `Cn1c(/C=C/C(=O)c2c(-c3ccccc3)c3cc(Cl)ccc3n(C)c2=O)nc2ccccc21` [Compound 59, 6-Chloro-1-methyl-3-[3-(1-methyl-1H-benzoimidazol-2-yl)-acryloyl]-4-phenyl-1H-quinolin-2-one], the IC50 (in assay [1]; in assay [2]; in assay [3]; in assay [4]; with A375) was 2 to 10 µM each time.

Consider `O=C(/C=C/c1c(F)cccc1F)c1c(-c2ccccc2)c2cc(Cl)ccc2[nH]c1=O` [Compound 42, 6-Chloro-3-[3-(2,6-difluoro-phenyl)-acryloyl]-4-phenyl-1H-quinolin-2-one], for which the IC50 in assay [1] was 2 to 10 µM; in assay [2], 2 to 10 µM; in assay [3], 2 to 10 µM; in assay [4] it was 2 to 10 µM; in the assay on A375 it was under 2 µM.

In the case of `CN(C)c1ccc(/C=C/C(=O)c2c(-c3ccccc3)c3cc([N+](=O)[O-])ccc3[nH]c2=O)cc1` [Compound 17, 3-[3-(4-Dimethylamino-phenyl)-acryloyl]-6-nitro-4-phenyl-1H-quinolin-2-one], the half-maximal inhibitory concentration (IC50) (in assay [1]; in assay [2]; in assay [3]; in assay [4]; in the assay with A375) was over 20 µM each time.

For the compound `O=C(/C=C/c1ccccn1)c1c(-c2ccc(F)cc2)c2cc(Cl)ccc2[nH]c1=O` [Compound 78, (E)-6-Chloro-4-(4-fluoro-phenyl)-3-(3-pyridin-2-yl-acryloyl)-1H-quinolin-2-one], the IC50 in assay [1] was 2 to 10 µM; in assay [2], 2 to 10 µM; in assay [3] it was 2 to 10 µM; in assay [4], 2 to 10 µM; with A375, under 2 µM.

Consider `CCn1c(/C=C/C(=O)c2c(-c3ccccc3)c3cc(Cl)ccc3[nH]c2=O)nc2ccccc21` [Compound 58, 6-Chloro-3-[3-(1-ethyl-1H-benzoimidazol-2-yl)-acryloyl]-4-phenyl-1H-quinolin-2-one], for which the IC50 (in assay [1]; in assay [2]; in assay [3]; in assay [4]; with A375) was 2 to 10 µM each time.

With `O=C(/C=C/c1cncnc1)c1c(-c2ccccc2)c2cc(Cl)ccc2[nH]c1=O` [Compound 37, 6-Chloro-4-phenyl-3-(3-pyrimidin-5-yl-acryloyl)-1H-quinolin-2-one], the IC50 (in assay [1]; in assay [2]; in assay [3]; in assay [4]; with A375) was 2 to 10 µM in each case.

As to `Cc1ccnc(/C=C/C(=O)c2c(-c3ccccc3)c3cc(Cl)ccc3[nH]c2=O)c1` [Compound 70, 3-[(2E)-3-(4-methyl(2-pyridyl))prop-2-enoyl]-6-chloro-4-phenylhydroquinolin-2-one], the IC50 (in assay [1]; in assay [2]; in assay [3]; in assay [4]; with A375) was 2 to 10 µM in each case.

For the compound `O=C(/C=C/c1nc2ccccc2[nH]1)c1c(-c2ccccc2)c2cc([N+](=O)[O-])ccc2[nH]c1=O` [Compound 13, 3-(3-1H-Benzoimidazol-2-yl-acryloyl)-6-nitro-4-phenyl-1H-quinolin-2-one], the IC50 in assay [1] is 2 to 10 µM; in assay [2], 10 to 20 µM; in assay [3] it was 2 to 10 µM; in assay [4] it was 2 to 10 µM; with A375 it was 2 to 10 µM.

Consider `O=C(/C=C/c1ccccc1)c1c(-c2ccccc2)c2cc(Cl)ccc2[nH]c1=O` [Compound 31, 6-Chloro-4-phenyl-3-(3-phenyl-acryloyl)-1H-quinolin-2-one], for which the IC50 (in assay [1]; in assay [2]; in assay [3]; in assay [4]; with A375) was 2 to 10 µM each time.

For `O=C(/C=C/c1ccc(Cl)cc1)c1c(-c2ccccc2)c2cc(Cl)ccc2[nH]c1=O` [Compound 33, 6-Chloro-3-[3-(4-chloro-phenyl)-acryloyl]-4-phenyl-1H-quinolin-2-one], the IC50 (in assay [1]; in assay [2]; in assay [3]; in assay [4]; in the assay with A375) was 2 to 10 µM in each case.

With `CCn1c(/C=C/C(=O)c2c(-c3ccccc3)c3cc(Cl)ccc3n(CC)c2=O)nc2ccccc21` [Compound 60, (E)-6-chloro-1-ethyl-3-(3-(1-ethyl-1H-benzo[d]imidazol-2-yl)acryloyl)-4-phenylquinolin-2(1H)-one], the IC50 in assay [1] was 10 to 20 µM; in assay [2] it was 10 to 20 µM; in assay [3], over 20 µM; in assay [4], over 20 µM; with A375, 2 to 10 µM.

With `Cc1ccc(-c2c(C(=O)/C=C/c3cncc(F)c3)c(=O)[nH]c3ccc(Cl)cc23)cc1` [Compound 85, 3-[(2E)-3-(5-fluoro(3-pyridyl))prop-2-enoyl]-6-chloro-4-(4-methylphenyl)hydroquinolin-2-one], the half-inhibitory concentration (IC50) in assay [1] was 2 to 10 µM; in assay [2], 2 to 10 µM; in assay [3], 2 to 10 µM; in assay [4] it was 2 to 10 µM; in the assay with A375, under 2 µM.
